Target: T1, full-length beta-Catenin (Uniprot ID P35222) (Homo sapiens, UniProt P35222)
T1 construct: 10 nM full-length beta-Catenin (Uniprot ID P35222)
T1 sequence (P35222 1-781): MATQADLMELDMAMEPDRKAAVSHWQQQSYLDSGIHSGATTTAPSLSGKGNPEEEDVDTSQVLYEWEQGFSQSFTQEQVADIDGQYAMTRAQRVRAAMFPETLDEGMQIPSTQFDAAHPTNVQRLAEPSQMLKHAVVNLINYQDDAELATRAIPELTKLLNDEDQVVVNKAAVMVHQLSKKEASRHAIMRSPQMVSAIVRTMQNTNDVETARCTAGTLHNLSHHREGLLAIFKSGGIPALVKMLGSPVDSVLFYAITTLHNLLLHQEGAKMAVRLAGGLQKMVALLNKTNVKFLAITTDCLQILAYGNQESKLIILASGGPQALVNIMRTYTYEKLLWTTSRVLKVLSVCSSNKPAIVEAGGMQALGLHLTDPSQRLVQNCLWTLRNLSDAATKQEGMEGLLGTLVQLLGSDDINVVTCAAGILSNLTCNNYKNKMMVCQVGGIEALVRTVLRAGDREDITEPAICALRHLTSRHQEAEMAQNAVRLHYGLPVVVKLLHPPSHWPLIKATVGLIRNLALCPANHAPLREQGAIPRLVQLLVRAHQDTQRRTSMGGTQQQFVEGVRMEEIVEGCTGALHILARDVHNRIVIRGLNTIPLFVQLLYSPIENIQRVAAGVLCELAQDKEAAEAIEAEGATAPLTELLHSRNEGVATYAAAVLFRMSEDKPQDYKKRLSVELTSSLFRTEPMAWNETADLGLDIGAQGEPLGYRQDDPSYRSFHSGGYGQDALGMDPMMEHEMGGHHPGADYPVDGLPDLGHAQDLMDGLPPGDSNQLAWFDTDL
Assay: Fluorescence polarization IC50 (beta-catenin / 5FAM-TCF4 10-53 competition)
Type: binding
Conditions: fluorescence polarization; read-out: beta-Catenin FP IC50

| Compound | IC50 [nM] |
| --- | --- |
| CC(=O)N1CCC[C@]12CC=CCCCCC1(CCCCC=CCCCOC(=O)N3CC[C@@](C(=O)N[C@@H](Cc4ccccc4C(F)(F)F)C(=O)N[C@@H](Cc4csc5ccccc45)C(=O)N[C@@H](C)C(N)=O)(C3)NC(=O)[C@H](CC(C)C)NC(=O)[C@H](Cc3ccccc3)NC(=O)[C@H](C)NC(=O)[C@H](CCC(N)=O)NC(=O)[C@H](Cc3cccc(C(=O)O)c3)NC(=O)[C@H](CC(=O)O)NC1=O)NC(=O)[C@H](CC(C)(C)C)NC(=O)[C@H](CC(=O)O)NC2=O (stereo partly drawn) [I-2516, Ac-PL3-Asp-Npg-B6-Asp-3COOHF-Gln-Ala-Phe-Leu-PyrS2-2F3MeF-BztA-Ala-NH2] | 209 |
| CC(=O)N1CCC[C@]12CC=CCCCCC1(CCCCC=CCCOC(=O)N3CC[C@@](C(=O)N[C@@H](Cc4ccccc4C(F)(F)F)C(=O)N[C@@H](Cc4csc5ccccc45)C(=O)N[C@@H](C)C(N)=O)(C3)NC(=O)[C@H](CC(C)C)NC(=O)[C@H](Cc3ccccc3)NC(=O)[C@H](C)NC(=O)[C@H](CCC(N)=O)NC(=O)[C@H](Cc3cccc(C(=O)O)c3)NC(=O)[C@H](CC(=O)O)NC1=O)NC(=O)[C@H](CC(C)(C)C)NC(=O)[C@H](CC(=O)O)NC2=O (stereo partly drawn) [I-2519, Ac-PL3-Asp-Npg-B6-Asp-3COOHF-Gln-Ala-Phe-Leu-PyrS1-2F3MeF-BztA-Ala-NH2] | 94 |
| CC(=O)N1CCC[C@]12CC=CCCCC1(CCCC=CCCCOC(=O)N3CC[C@@](C(=O)N[C@@H](Cc4ccccc4)C(=O)N[C@@H](Cc4csc5ccccc45)C(=O)N[C@@H](CC(=O)N4CCOCC4)C(N)=O)(C3)NC(=O)[C@H](CC(C)C)NC(=O)[C@H](Cc3ccccc3)NC(=O)[C@H](C)NC(=O)[C@H](CCCCNS(C)(=O)=O)NC(=O)[C@H](CCC(N)=O)NC(=O)[C@H](CC(=O)O)NC1=O)NC(=O)[C@H](CC1CCCCC1)NC(=O)[C@H](CC(N)=O)NC2=O (stereo partly drawn) [I-2524, Ac-PL3-Asn-Cha-B5-Asp-Gln-[MeSO2]Lys-Ala-Phe-Leu-PyrS2-Phe-BztA-MorphAsn-NH2] | 609 |
| CC(C)C[C@@H]1NC(=O)[C@H](Cc2ccccc2)NC(=O)[C@H](C)NC(=O)[C@H](C)NC(=O)[C@H](Cc2cccc(C(=O)O)c2)NC(=O)[C@H](CC(=O)O)NC(=O)C2(CCCCCCCCOC(=O)N3CC[C@@](C(=O)N[C@@H](Cc4ccccc4C(F)(F)F)C(=O)N[C@@H](Cc4csc5ccccc45)C(=O)N[C@@H](CCC(N)=O)C(N)=O)(C3)NC1=O)CCCCCC[C@@]13CCCN1C(=O)CCCCC[C@H](NC(=O)[C@H](CC(=O)O)NC3=O)C(=O)N2 (stereo partly drawn) [I-2530, 4pentenyl-PL3-Asp-AllylGly-B5-Asp-3COOHF-Ala-Ala-Phe-Leu-PyrS2-2F3MeF-BztA-Gln-NH2] | 102 |
| CCCC[C@@H]1NC(=O)[C@H](CC(=O)O)NC(=O)[C@]2(CCCCCCC3(CCCCCCCCOC(=O)N4CC[C@@](C(=O)N[C@@H](Cc5ccccc5C(F)(F)F)C(=O)N[C@@H](Cc5csc6ccccc56)C(=O)N[C@@H](CCC(N)=O)C(N)=O)(C4)NC(=O)[C@H](CC(C)C)NC(=O)[C@H](Cc4ccccc4)NC(=O)[C@H](C)NC(=O)[C@H](C)NC(=O)[C@H](Cc4cccc(C(=O)O)c4)NC(=O)[C@H](CC(=O)O)NC3=O)NC1=O)CCCN2C(C)=O (stereo partly drawn) [I-2531, Ac-PL3-Asp-nLeu-B5-Asp-3COOHF-Ala-Ala-Phe-Leu-PyrS2-2F3MeF-BztA-Gln-NH2] | 179 |

More lines, in order of falling IC50, values ahead:

| IC50 [nM] | Compound |
| --- | --- |
| 4290 | CC(=O)N1CCC[C@]12CC=CCCCC1(CCCC=CCCCOC(=O)N3CC[C@@](C(=O)N[C@@H](Cc4ccccc4)C(=O)N[C@@H](Cc4csc5ccccc45)C(=O)N[C@@H](CC(=O)N4CCOCC4)C(N)=O)(C3)NC(=O)[C@H](CC(C)C)NC(=O)[C@H](Cc3ccccc3)NC(=O)[C@H](C)NC(=O)[C@H](CCCCNC(=O)C(F)(F)F)NC(=O)[C@H](CCC(N)=O)NC(=O)[C@H](CC(=O)O)NC1=O)NC(=O)[C@H](CC1CCCCC1)NC(=O)[C@H](CC(N)=O)NC2=O (stereo partly drawn) [I-2525, Ac-PL3-Asn-Cha-B5-Asp-Gln-[CF3CO]Lys-Ala-Phe-Leu-PyrS2-Phe-BztA-MorphAsn-NH2] |
| 610 | CC(=O)N1CCC[C@]12CC=CCCCC1(CCCC=CCCCOC(=O)N3CC[C@@](C(=O)N[C@@H](Cc4ccccc4)C(=O)N[C@@H](Cc4csc5ccccc45)C(=O)N[C@@H](CC(=O)N4CCOCC4)C(N)=O)(C3)NC(=O)[C@H](CC(C)C)NC(=O)[C@H](Cc3ccccc3)NC(=O)[C@H](C)NC(=O)[C@H](CCCCNC(=O)CCN(C)C)NC(=O)[C@H](CCC(N)=O)NC(=O)[C@H](CC(=O)O)NC1=O)NC(=O)[C@H](CC1CCCCC1)NC(=O)[C@H](CC(N)=O)NC2=O (stereo partly drawn) [I-2528, Ac-PL3-Asn-Cha-B5-Asp-Gln-[Me2Npr]Lys-Ala-Phe-Leu-PyrS2-Phe-BztA-MorphAsn-NH2] |
| 566 | CC(=O)N1CCC[C@]12CC=CCCCCC1(CCCCC=CCCCOC(=O)N3CC[C@@](C(=O)N[C@@H](Cc4ccccc4C(F)(F)F)C(=O)N[C@@H](Cc4csc5ccccc45)C(=O)N[C@@H](CCC(N)=O)C(N)=O)(C3)NC(=O)[C@H](CC(C)C)NC(=O)[C@H](Cc3ccccc3)NC(=O)[C@H](C)NC(=O)[C@H](C)NC(=O)[C@H](Cc3cccc(C(=O)O)c3)NC(=O)[C@H](CC(=O)O)NC1=O)NC(=O)[C@H](CC(C)(C)C)NC(=O)[C@H](CC(=O)O)NC2=O (stereo partly drawn) [I-2511, Ac-PL3-Asp-Npg-B6-Asp-3COOHF-Ala-Ala-Phe-Leu-PyrS2-2F3MeF-BztA-Gln-NH2] |
| 245 | CC(=O)N1CCC[C@]12CC=CCCCCC1(CCCCC=CCCCOC(=O)N3CC[C@@](C(=O)N[C@@H](Cc4ccccc4C(F)(F)F)C(=O)N[C@@H](Cc4csc5ccccc45)C(=O)N[C@@H](CCC(N)=O)C(N)=O)(C3)NC(=O)[C@H](CC(C)C)NC(=O)[C@H](Cc3ccccc3)NC(=O)[C@H](C)NC(=O)[C@H](C)NC(=O)[C@H](Cc3cccc(C(=O)O)c3)NC(=O)[C@H](CC(=O)O)NC1=O)NC(=O)[C@H](CC(C)(C)C)NC(=O)[C@H](CC(=O)O)NC2=O (stereo partly drawn) [I-2512, Ac-PL3-Asp-Npg-B6-Asp-3COOHF-Ala-Ala-Phe-Leu-PyrS2-2F3MeF-BztA-Gln-NH2] |
| 153 | CC(C)C[C@@H]1NC(=O)[C@H](Cc2ccccc2)NC(=O)[C@H](C)NC(=O)[C@H](C)NC(=O)[C@H](Cc2cccc(C(=O)O)c2)NC(=O)[C@H](CC(=O)O)NC(=O)C2(CCCCCCCCOC(=O)N3CC[C@@](C(=O)N[C@@H](Cc4ccccc4C(F)(F)F)C(=O)N[C@@H](Cc4csc5ccccc45)C(=O)N[C@@H](CCC(N)=O)C(N)=O)(C3)NC1=O)CCCCCC[C@@]13CCCN1C(=O)CCCCCC[C@H](NC(=O)[C@H](CC(=O)O)NC3=O)C(=O)N2 (stereo partly drawn) [I-2529, 5hexenyl-PL3-Asp-AllylGly-B5-Asp-3COOHF-Ala-Ala-Phe-Leu-PyrS2-2F3MeF-BztA-Gln-NH2] |
| 74 | CC(=O)N1CCC[C@]12CC=CCCCCC1(CCCCC=CCCCOC(=O)N3CC[C@@](C(=O)N[C@@H](Cc4ccccc4C(F)(F)F)C(=O)N[C@@H](Cc4csc5ccccc45)C(=O)N[C@@H](CCC(N)=O)C(N)=O)(C3)NC(=O)[C@H](CC(C)C)NC(=O)[C@H](Cc3ccccc3)NC(=O)[C@H](C)NC(=O)[C@H](C)NC(=O)[C@H](Cc3cccc(C(=O)O)c3)NC(=O)[C@H](CC(=O)O)NC1=O)NC(=O)[C@H](CC(C)(C)C)NC(=O)[C@H](CC(=O)O)NC2=O (stereo partly drawn) [I-2514, Ac-PL3-Asp-Npg-B6-Asp-3COOHF-Ala-Ala-Phe-Leu-PyrS2-2F3MeF-BztA-Gln-NH2] |

From patent US20240116985A1, “STAPLED PEPTIDES AND METHODS THEREOF” (priority 2020, published 2024)
